Experimental findings from PubChem BioAssay AID192 (DTP/NCI, 2004) are described below.

The test system of the experiment is BDF1 mice, B16 melanoma ip, median survival T/C. The experiment can be described thus: NCI In Vivo Anticancer Drug Screen. Data for tumor model B16 Melanoma (intraperitoneal) in B6D2F1 (BDF1) mice. The note with it: endpoint: median survival time, higher = longer survival. Summed up:
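Antitumor activity is assessed in mice bearing a transplanted tumor, with survival or tumor size compared against vehicle-dosed controls and expressed as T/C.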

Setting [1] is: dose: 12.5 mg/kg/injection, schedule: Q01DX009 (ip), vehicle: saline.
The mark [2] stands for this setting: dose: 25.0 mg/kg/injection, schedule: Q01DX009 (ip), vehicle: saline.
Where [3] appears, read: dose: 50.0 mg/kg/injection, schedule: Q04DX003 (ip), vehicle: saline.
Setting [4] is: dose: 12.5 mg/kg/injection, schedule: Q01DX009 (ip), vehicle: Klucel (hydroxypropylcellulose) (HPC).
The mark [5] stands for this setting: dose: 25.0 mg/kg/injection, schedule: Q01DX009 (ip), vehicle: Klucel (hydroxypropylcellulose) (HPC).
Setting [6] is: dose: 50.0 mg/kg/injection, schedule: Q01DX009 (ip), vehicle: Klucel (hydroxypropylcellulose) (HPC).
Setting [7] is: dose: 100.0 mg/kg/injection, schedule: Q01DX009 (ip), vehicle: Klucel (hydroxypropylcellulose) (HPC).
[8] abbreviates: dose: 200.0 mg/kg/injection, schedule: Q01DX009 (ip), vehicle: Klucel (hydroxypropylcellulose) (HPC).
Where [9] appears, read: dose: 6.25 mg/kg/injection, schedule: Q01DX009 (ip), vehicle: Klucel (hydroxypropylcellulose) (HPC).
Setting [10] is: dose: 6.25 mg/kg/injection, schedule: Q01DX009 (ip), vehicle: saline with Tween-80.
The mark [11] stands for this setting: dose: 12.5 mg/kg/injection, schedule: Q01DX009 (ip), vehicle: saline with Tween-80.
Setting [12] is: dose: 25.0 mg/kg/injection, schedule: Q01DX009 (ip), vehicle: saline with Tween-80.
[13] abbreviates: dose: 50.0 mg/kg/injection, schedule: Q01DX009 (ip), vehicle: saline with Tween-80.
[14] abbreviates: dose: 100.0 mg/kg/injection, schedule: Q01DX009 (ip), vehicle: saline with Tween-80.

Molecules are shown by their SMILES. “And” between values parts separate entries of the source, which are not always exact repeats. Equal values may be shown once. Toxic doses and inconclusive results are not listed.

Regarding `C1CCc2nnnn2CC1`, the T/C by setting is: (dose: 1.56 mg/kg/injection, schedule: Q04DX003 (ip), vehicle: saline) 111 % of control; (dose: 3.12 mg/kg/injection, schedule: Q01DX009 (ip), vehicle: saline) 113 % of control; (dose: 3.12 mg/kg/injection, schedule: Q04DX003 (ip), vehicle: saline) 110 % of control; (dose: 6.25 mg/kg/injection, schedule: Q01DX009 (ip), vehicle: saline) 102 % of control; (dose: 6.25 mg/kg/injection, schedule: Q04DX003 (ip), vehicle: saline) 106 % of control; under setting [1], 102 % of control. The T/C was 103 % of control (dose: 12.5 mg/kg/injection, schedule: Q04DX003 (ip), vehicle: saline); 88 % of control under setting [2]; 103 % of control and 111 % of control (dose: 25.0 mg/kg/injection, schedule: Q04DX003 (ip), vehicle: saline); 105 % of control under setting [3].
As to `CC(C)(O)C(C)(O)c1cccc(Cl)c1` (stereo not given), the T/C was 107 % of control under setting [4], 102 % of control under setting [5] and 88 % of control under setting [6].
In the case of `O=c1oc2ccccc2c(O)c1C(c1ccc(C(c2c(O)c3ccccc3oc2=O)c2c(O)c3ccccc3oc2=O)cc1)c1c(O)c2ccccc2oc1=O`, the T/C by setting is: under setting [6], 103 % of control; under setting [7], 100 % of control; under setting [8], 93 % of control.
Turning to `CC[C@@]1(O)C(=O)OCc2c1cc1n(c2=O)Cc2cc3cc(O)ccc3nc2-1`, the T/C is, setting by setting: (dose: 0.2 mg/kg/injection, schedule: Q01DX009 (ip), vehicle: other) 157 % of control; (dose: 0.39 mg/kg/injection, schedule: Q01DX009 (ip), vehicle: other) 151 % of control; (dose: 0.79 mg/kg/injection, schedule: Q01DX009 (ip), vehicle: other) 179 % of control; (dose: 1.57 mg/kg/injection, schedule: Q01DX009 (ip), vehicle: other) 184 % of control.
For `[I][Hg][CH2]C1OCCOC1[CH2][Hg][I]` (stereo not given), the T/C reads like this: under setting [9], 100 % of control; under setting [4], 101 % of control; under setting [5], 106 % of control; under setting [6], 107 % of control; under setting [7], 105 % of control; under setting [8], 95 % of control.
On to `COC(=O)C(N)Cc1ccc(O)c(O)c1` (stereo not given), for which the T/C runs as follows: (dose: 25.0 mg/kg/injection, schedule: Q08HX018 (ip), vehicle: water) 122 % of control; (dose: 50.0 mg/kg/injection, schedule: Q08HX018 (ip), vehicle: water) 111 % of control; (dose: 50.0 mg/kg/injection, schedule: Q08HX030 (ip), vehicle: saline) 99 % of control; (dose: 100.0 mg/kg/injection, schedule: Q01DX012 (ip), vehicle: saline) 102 % of control; (dose: 100.0 mg/kg/injection, schedule: Q01DX014 (ip), vehicle: saline) 102 % of control; (dose: 100.0 mg/kg/injection, schedule: Q08HX018 (ip), vehicle: water) 110 % of control. Moreover, the T/C by setting is: (dose: 100.0 mg/kg/injection, schedule: Q08HX030 (ip), vehicle: saline) 104 % of control; (dose: 200.0 mg/kg/injection, schedule: Q01DX012 (ip), vehicle: saline) 104 % of control; (dose: 200.0 mg/kg/injection, schedule: Q01DX014 (ip), vehicle: saline) 104 % of control; (dose: 200.0 mg/kg/injection, schedule: Q08HX018 (ip), vehicle: water) 113 % of control; (dose: 200.0 mg/kg/injection, schedule: Q08HX030 (ip), vehicle: saline) 111 % of control; (dose: 400.0 mg/kg/injection, schedule: Q01DX012 (ip), vehicle: saline) 120 % of control. Also, the T/C was 118 % of control (dose: 400.0 mg/kg/injection, schedule: Q01DX014 (ip), vehicle: saline) and 107 % of control (dose: 400.0 mg/kg/injection, schedule: Q08HX030 (ip), vehicle: saline).
On to `CN1CCC=C(CN2c3ccccc3Sc3ccc(Cl)cc32)C1`, for which the T/C was 95 % of control under setting [1] and 94 % of control under setting [2].
As to `COC(=O)c1ccc(-c2ccccc2)cc1`, the T/C under setting [4] is 93 % of control, the T/C under setting [5] is 88 % of control, the T/C under setting [6] was 97 % of control and the T/C under setting [7] is 93 % of control.
As to `NC(=S)Nc1cccc(Cl)c1`, the T/C reads like this: under setting [4], 106 % of control; under setting [5], 102 % of control; under setting [6], 100 % of control.
`OCC1OC(n2cnc3cc(Cl)c(Cl)cc32)C(O)C1O` (stereo not given): the T/C under setting [10] was 101 % of control and 117 % of control; the T/C under setting [11] is 100 % of control and 104 % of control and 113 % of control; the T/C under setting [12] is 97 % of control and 113 % of control and 114 % of control; the T/C under setting [13] was 107 % of control and 116 % of control; the T/C under setting [14] was 102 % of control and 121 % of control.
Consider `ClC1OC(Cl)(Cl)C(Cl)(Cl)OC1(Cl)Cl` (stereo not given), for which the T/C by setting is: under setting [7], 93 % of control; under setting [8], 93 % of control; (dose: 400.0 mg/kg/injection, schedule: Q01DX009 (ip), vehicle: Klucel (hydroxypropylcellulose) (HPC)) 86 % of control.
On to `Cc1cc(OCc2nc(N)nc(N)c2-c2ccc(Cl)c(Cl)c2)ccc1NS(=O)(=O)c1cccc(S(=O)(=O)F)c1`, for which the T/C runs as follows: (dose: 117.0 mg/kg/injection, schedule: Q04DX003 (ip), vehicle: saline) 122 % of control; (dose: 400.0 mg/kg/injection, schedule: Q04DX003 (ip), vehicle: saline) 117 % of control.
With `Cc1c2cc3c(c1O)C(=O)CC(O3)c1ccc(O)c(c1)-c1ccc(O)c(c1)C(=O)OCC1OC(O2)C(O)C(O)C1O` (stereo not given), the T/C runs as follows: (dose: 0.13 mg/kg/injection, schedule: Q01DX009 (ip), vehicle: Klucel (hydroxypropylcellulose) (HPC)) 91 % of control; (dose: 0.25 mg/kg/injection, schedule: Q01DX009 (ip), vehicle: Klucel (hydroxypropylcellulose) (HPC)) 94 % of control; (dose: 0.5 mg/kg/injection, schedule: Q01DX009 (ip), vehicle: Klucel (hydroxypropylcellulose) (HPC)) 95 % of control; (dose: 1.0 mg/kg/injection, schedule: Q01DX009 (ip), vehicle: Klucel (hydroxypropylcellulose) (HPC)) 94 % of control.
With `C=CCOCC(O)CN(C)CCCC` (stereo not given), the T/C is, setting by setting: under setting [3], 108 % of control; (dose: 100.0 mg/kg/injection, schedule: Q04DX003 (ip), vehicle: saline) 108 % of control.
On to `Cc1ccc(NC(=O)Nc2ccccc2Cl)cc1Cl`, for which the T/C runs as follows: under setting [6], 100 % of control; under setting [7], 104 % of control.
Turning to `CCCNCCN(CC)CC`, the T/C by setting is: under setting [13], 107 % of control; under setting [14], 100 % of control; (dose: 200.0 mg/kg/injection, schedule: Q01DX009 (ip), vehicle: saline with Tween-80) 99 % of control.
Turning to `COc1ccc(C(N)=O)cc1N=NN(C)C`, the T/C (dose: 3.12 mg/kg/injection, schedule: Q01DX009 (ip), vehicle: Klucel (hydroxypropylcellulose) (HPC)) is 111 % of control and 113 % of control; the T/C under setting [9] was 109 % of control and 110 % of control; the T/C under setting [4] was 110 % of control and 111 % of control; the T/C under setting [5] is 115 % of control and 123 % of control; the T/C under setting [6] was 117 % of control.
In the case of `CC1(C)N=C(N)N=C(N)N1c1cccc(CCCCc2ccc(Cl)c(S(=O)(=O)F)c2)c1`, the T/C is, setting by setting: (dose: 3.13 mg/kg/injection, schedule: Q01DX009 (ip), vehicle: Klucel (hydroxypropylcellulose) (HPC)) 94 % of control; under setting [9], 100 % of control; under setting [4], 94 % of control.
As for `COC(=O)C1CCC[N+](C)(C)C1` (stereo not given), the T/C is 100 % of control under setting [1]; 100 % of control under setting [2]; 91 % of control (dose: 50.0 mg/kg/injection, schedule: Q01DX009 (ip), vehicle: saline).
For the molecule `Cc1c2ccccc2c(C)c2c1ccc1ccccc12`, the T/C (dose: 2.0 mg/kg/injection, schedule: Q01DX009 (ip), vehicle: saline with Tween-80) is 100 % of control; the T/C (dose: 4.0 mg/kg/injection, schedule: Q01DX009 (ip), vehicle: saline with Tween-80) was 108 % of control; the T/C (dose: 16.0 mg/kg/injection, schedule: Q01DX009 (ip), vehicle: saline with Tween-80) was 108 % of control.
Regarding `O=[N+]([O-])c1cc(Br)cc2c1nc(Cl)c1ccccc12`, the T/C reads like this: under setting [13], 94 % of control; under setting [14], 88 % of control.
As to `O=C(O[Si](Cc1ccccc1)(Cc1ccccc1)Cc1ccccc1)N(CCCl)CCCl`, the T/C under setting [10] was 100 % of control, the T/C under setting [11] is 112 % of control, the T/C under setting [12] is 104 % of control and the T/C under setting [13] was 108 % of control.
